From patent US20250213471A1, “PEMETREXED DISODIUM LIQUID COMPOSITION, PREPARATION METHOD THEREFOR AND USE THEREOF” (SHANGHAI AURORA BIOTECHNOLOGY CO., LTD., priority 2022, published 2025) come the findings set out here.

In one data set the test system is human plasma protein. Description: Human plasma protein binding rate by equilibrium dialysis. The note with it: positive, 5 μM. (In general: In equilibrium dialysis free small molecules cross a membrane that holds back macromolecules.)
Another data set relates to guinea pigs. Nature of the data set: Active systemic anaphylaxis experiment in guinea pigs. Conditions: first challenge.
Where [1] appears, read: positive control group (8 mg/mL, 0.5 mL/guinea pig sensitization, i.v.).

“And” between values parts separate entries of the source, which are not always exact repeats. Identical values can stand only once.

Procedure for guinea pigs: The administration doses were 20 m/kg and 40 mg/kg and were about 1.5 and 3 times of the highest clinical intended dose. The day of the first administration was defined as day 1 of the experiment. Sensitization was performed 1 time every other day. 3 consecutive sensitizations were performed (i.e., sensitization on days 1, 3, and 5 of the experiment). On day 14 and day 21 after the last sensitization (i.e., on day 19 and day 26 of the experiment), the guinea pigs were challenged by intravenous injection at 2 times the dose of the sensitization dose, and the systemic reaction and death after the challenge were observed.

In the case of `CC(C)NCC(O)COc1cccc2ccccc12` (stereo not drawn) [Propranolol], the “Binding rate (%)” value in the data set on human plasma protein (human plasma) was found to be 87.27%. Further, in the data set with human plasma protein, the “Administration side (peak area ratio), Mean” value was 3.774; the “Administration side (peak area ratio), single replicates N = 1-3” value was 3.835 and 3.690 and 3.798; the “Receiving side (peak area ratio), Mean” value is recorded as 0.480; the “Receiving side (peak area ratio), single replicates N = 1-3” value is 0.486 and 0.480 and 0.475. Also, in the data set with human plasma protein, the “T0 h (peak area ratio), Mean” value is recorded as 5.286; the “T0 h (peak area ratio), single replicates N = 1-3” value is 5.491 and 5.043 and 5.325; the “T5 h (peak area ratio), Mean” value came out at 4.896; the “T5 h (peak area ratio), single replicates N = 1-3” value is 4.909 and 4.831 and 4.947. Moreover, in the data set with human plasma protein (T5 h vs T0 h), the “Stability (%)” value came to 92.61%.

B1: Positive control: 8 mg/mL egg white albumin solution, positive control of the anaphylaxis experiment (protein, UniProt P01012 2-386, looked up)
Ovalbumin: GSIGAASMEFCFDVFKELKVHHANENIFYCPIAIMSALAMVYLGAKDSTRTQINKVVRFDKLPGFGDSIEAQCGTSVNVHSSLRDILNQITKPNDVYSFSLASRLYAEERYPILPEYLQCVKELYRGGLEPINFQTAADQARELINSWVESQTNGIIRNVLQPSSVDSQTAMVLVNAIVFKGLWEKAFKDEDTQAMPFRVTEQESKPVQMMYQIGLFRVASMASEKMKILELPFASGTMSMLVLLPDEVSGLEQLESIINFEKLTEWTSSNVMEERKIKVYLPRMKMEEKYNLTSVLMAMGITDVFSSSANLSGISSAESLKISQAVHAAHAEINEAGREVVGSAEAGVDAASVSEEFRADHPFLFCIKHIATNAVLFFGRCVSP
With B1, the “Time to death of all guinea pigs after challenge administration” value with guinea pigs (positive control group) was not above 7 min. Also, in the data set with guinea pigs (setting [1]), the “Anaphylaxis Degree of occurrence” value is on record as “extremely positive”; the “Anaphylaxis Incidence (%)” value turned out to be 100%; the “Number of symptoms of anaphylaxis and occurrence proportion: 0” value was determined as 0; the “Number of symptoms of anaphylaxis and occurrence proportion: 1-4” value turned out to be 0. Besides, in the data set on guinea pigs (setting [1]), the “Number of symptoms of anaphylaxis and occurrence proportion: 5-10” value is reported as 0; the “Number of symptoms of anaphylaxis and occurrence proportion: 11-19” value is on record as 0; the “Number of symptoms of anaphylaxis and occurrence proportion: 20” value is on record as 6/6.
